Experimental data published in PubChem BioAssay (NCI).
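All cell lines were grown in 96-well plates and treated with compound for 48 hours. TGI: concentration producing complete growth inhibition.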

Assays:
Assay in all cases: NCI tumour cell line growth inhibition, 48 h
786-0 renal = tested on: 786-0 renal
A498 renal = tested on: A498 renal
A549 NSCLC = tested on: A549 NSCLC
ACHN renal = tested on: ACHN renal
BT-549 breast = tested on: BT-549 breast
CAKI-1 renal = tested on: CAKI-1 renal
CCRF-CEM leukemia = tested on: CCRF-CEM leukemia
COLO 205 colon = tested on: COLO 205 colon
DU-145 prostate = tested on: DU-145 prostate
EKVX NSCLC = tested on: EKVX NSCLC
HCT-116 colon = tested on: HCT-116 colon
HL-60(TB) leukemia = tested on: HL-60(TB) leukemia
HOP-62 NSCLC = tested on: HOP-62 NSCLC
HOP-92 NSCLC = tested on: HOP-92 NSCLC
HS 578T breast = tested on: HS 578T breast
HT29 colon = tested on: HT29 colon
IGROV1 ovarian = tested on: IGROV1 ovarian
K-562 leukemia = tested on: K-562 leukemia
KM12 colon = tested on: KM12 colon
LOX IMVI melanoma = tested on: LOX IMVI melanoma
M14 melanoma = tested on: M14 melanoma
MALME-3M melanoma = tested on: MALME-3M melanoma
MCF7 breast = tested on: MCF7 breast
MDA-MB-231 breast = tested on: MDA-MB-231 breast
MDA-MB-435 = tested on: MDA-MB-435
MDA-N = tested on: MDA-N
MOLT-4 leukemia = tested on: MOLT-4 leukemia
NCI-H23 lung = tested on: NCI-H23 lung
NCI-H522 lung = tested on: NCI-H522 lung
NCI/ADR-RES ovarian = tested on: NCI/ADR-RES ovarian
OVCAR-3 ovarian = tested on: OVCAR-3 ovarian
OVCAR-4 ovarian = tested on: OVCAR-4 ovarian
OVCAR-5 ovarian = tested on: OVCAR-5 ovarian
OVCAR-8 ovarian = tested on: OVCAR-8 ovarian
PC-3 prostate = tested on: PC-3 prostate
RPMI-8226 leukemia = tested on: RPMI-8226 leukemia
RXF 393 renal = tested on: RXF 393 renal
SF-268 CNS = tested on: SF-268 CNS
SF-295 CNS = tested on: SF-295 CNS
SF-539 CNS = tested on: SF-539 CNS
SK-MEL-2 melanoma = tested on: SK-MEL-2 melanoma
SK-MEL-28 melanoma = tested on: SK-MEL-28 melanoma
SK-MEL-5 melanoma = tested on: SK-MEL-5 melanoma
SK-OV-3 ovarian = tested on: SK-OV-3 ovarian
SN12C renal = tested on: SN12C renal
SNB-19 CNS = tested on: SNB-19 CNS
SNB-75 CNS = tested on: SNB-75 CNS
SW-620 colon = tested on: SW-620 colon
T-47D breast = tested on: T-47D breast
TK-10 renal = tested on: TK-10 renal
U251 CNS = tested on: U251 CNS
UACC-257 melanoma = tested on: UACC-257 melanoma
UACC-62 melanoma = tested on: UACC-62 melanoma
UO-31 renal = tested on: UO-31 renal
HCT-15 colon = tested on: HCT-15 colon
NCI-H226 lung = tested on: NCI-H226 lung
NCI-H460 lung = tested on: NCI-H460 lung

C1CCC2(CC1)O[C@@H]1[C@@H](O2)[C@@H](O[C@H]2O[C@@H]3COC4(CCCCC4)O[C@H]3[C@@H]3OC4(CCCCC4)O[C@@H]23)O[C@@H]2COC3(CCCCC3)O[C@@H]12
TGI (786-0 renal): > 100 µM | TGI (A498 renal): > 100 µM | TGI (A549 NSCLC): > 100 µM | TGI (ACHN renal): > 100 µM | TGI (BT-549 breast): > 100 µM | TGI (CAKI-1 renal): > 100 µM | TGI (CCRF-CEM leukemia): > 100 µM | TGI (COLO 205 colon): > 100 µM | TGI (DU-145 prostate): > 100 µM | TGI (EKVX NSCLC): > 100 µM | TGI (HCT-116 colon): > 100 µM | TGI (HL-60(TB) leukemia): > 100 µM | TGI (HOP-62 NSCLC): > 100 µM | TGI (HOP-92 NSCLC): > 100 µM | TGI (HS 578T breast): > 100 µM | TGI (HT29 colon): > 100 µM | TGI (IGROV1 ovarian): > 100 µM | TGI (K-562 leukemia): > 100 µM | TGI (KM12 colon): > 100 µM | TGI (LOX IMVI melanoma): > 100 µM | TGI (M14 melanoma): > 100 µM | TGI (MALME-3M melanoma): > 100 µM | TGI (MCF7 breast): > 100 µM | TGI (MDA-MB-231 breast): > 100 µM | TGI (MDA-MB-435): > 100 µM | TGI (MDA-N): > 100 µM | TGI (MOLT-4 leukemia): > 100 µM | TGI (NCI-H23 lung): > 100 µM | TGI (NCI-H522 lung): > 100 µM | TGI (NCI/ADR-RES ovarian): > 100 µM | TGI (OVCAR-3 ovarian): > 100 µM | TGI (OVCAR-4 ovarian): > 100 µM | TGI (OVCAR-5 ovarian): > 100 µM | TGI (OVCAR-8 ovarian): > 100 µM | TGI (PC-3 prostate): > 100 µM | TGI (RPMI-8226 leukemia): > 100 µM | TGI (RXF 393 renal): > 100 µM | TGI (SF-268 CNS): > 100 µM | TGI (SF-295 CNS): > 100 µM | TGI (SF-539 CNS): > 100 µM | TGI (SK-MEL-2 melanoma): > 100 µM | TGI (SK-MEL-28 melanoma): > 100 µM | TGI (SK-MEL-5 melanoma): > 100 µM | TGI (SK-OV-3 ovarian): > 100 µM | TGI (SN12C renal): > 100 µM | TGI (SNB-19 CNS): > 100 µM | TGI (SNB-75 CNS): > 100 µM | TGI (SW-620 colon): > 100 µM | TGI (T-47D breast): > 100 µM | TGI (TK-10 renal): > 100 µM | TGI (U251 CNS): > 100 µM | TGI (UACC-257 melanoma): > 100 µM | TGI (UACC-62 melanoma): > 100 µM | TGI (UO-31 renal): > 100 µM

O=C(c1ccco1)N1CCCN(C(=O)c2ccco2)C1=S
TGI (786-0 renal): > 100 µM | TGI (A498 renal): > 100 µM | TGI (ACHN renal): > 100 µM | TGI (BT-549 breast): > 100 µM | TGI (CAKI-1 renal): > 100 µM | TGI (CCRF-CEM leukemia): > 100 µM | TGI (COLO 205 colon): > 100 µM | TGI (DU-145 prostate): > 100 µM | TGI (EKVX NSCLC): > 100 µM | TGI (HCT-116 colon): > 100 µM | TGI (HCT-15 colon): > 100 µM | TGI (HL-60(TB) leukemia): > 100 µM | TGI (HOP-62 NSCLC): > 100 µM | TGI (HS 578T breast): > 100 µM | TGI (HT29 colon): > 100 µM | TGI (IGROV1 ovarian): > 100 µM | TGI (K-562 leukemia): > 100 µM | TGI (KM12 colon): > 100 µM | TGI (LOX IMVI melanoma): > 100 µM | TGI (M14 melanoma): > 100 µM | TGI (MALME-3M melanoma): > 100 µM | TGI (MCF7 breast): > 100 µM | TGI (MDA-MB-231 breast): > 100 µM | TGI (MDA-MB-435): > 100 µM | TGI (MDA-N): > 100 µM | TGI (MOLT-4 leukemia): > 100 µM | TGI (NCI-H226 lung): > 100 µM | TGI (NCI-H23 lung): > 100 µM | TGI (NCI-H460 lung): > 100 µM | TGI (NCI/ADR-RES ovarian): > 100 µM | TGI (OVCAR-3 ovarian): > 100 µM | TGI (OVCAR-5 ovarian): > 100 µM | TGI (OVCAR-8 ovarian): > 100 µM | TGI (PC-3 prostate): > 100 µM | TGI (RPMI-8226 leukemia): > 100 µM | TGI (RXF 393 renal): > 100 µM | TGI (SF-268 CNS): > 100 µM | TGI (SF-539 CNS): > 100 µM | TGI (SK-MEL-2 melanoma): > 100 µM | TGI (SK-MEL-28 melanoma): > 100 µM | TGI (SK-MEL-5 melanoma): > 100 µM | TGI (SK-OV-3 ovarian): > 100 µM | TGI (SN12C renal): > 100 µM | TGI (SNB-19 CNS): > 100 µM | TGI (SW-620 colon): > 100 µM | TGI (T-47D breast): 93.3 µM | TGI (TK-10 renal): > 100 µM | TGI (U251 CNS): > 100 µM | TGI (UACC-257 melanoma): > 100 µM | TGI (UACC-62 melanoma): > 100 µM | TGI (UO-31 renal): > 100 µM
